Measurements published in the CheMixHub viscosity set.

Test: xn = mol fraction of the nth substance listed

CCCCCCCCCCCC + C1CCCCC1
Conditions | viscosity [mPa·s]
297.78 K, 101.3 kPa, x1 = 0.4996 | 1.131
298.13 K, 101.3 kPa, x1 = 0.7489 | 1.247
298.15 K, 100 kPa, x2 = 0.2 | 1.263
298.15 K, 100 kPa, x2 = 0.4 | 1.171
298.15 K, 100 kPa, x2 = 0.6 | 1.071
298.15 K, 100 kPa, x2 = 0.8 | 0.979
298.15 K, 101.33 kPa, x1 = 0.0169 | 0.9114
298.15 K, 101.33 kPa, x2 = 0.1549 | 1.299
298.15 K, 101.33 kPa, x2 = 0.2886 | 1.237
298.15 K, 101.33 kPa, x2 = 0.3945 | 1.187
298.15 K, 101.33 kPa, x2 = 0.5031 | 1.138
298.15 K, 101.33 kPa, x2 = 0.5879 | 1.098
298.15 K, 101.33 kPa, x2 = 0.6636 | 1.048
298.15 K, 101.33 kPa, x2 = 0.7601 | 1.011
298.15 K, 101.33 kPa, x2 = 0.7983 | 0.9774
298.15 K, 101.33 kPa, x2 = 0.8536 | 0.9573
298.15 K, 101.33 kPa, x2 = 0.8943 | 0.9433
298.15 K, 101.33 kPa, x2 = 0.941 | 0.9223
298.31 K, 101.3 kPa, x1 = 0.5001 | 1.121
298.35 K, 101.3 kPa, x1 = 0.5001 | 1.116
298.38 K, 101.3 kPa, x1 = 0.2501 | 0.9923
298.43 K, 101.3 kPa, x1 = 0.2501 | 0.9883
298.43 K, 101.3 kPa, x1 = 0.4996 | 1.114
298.61 K, 101.3 kPa, x1 = 0.7489 | 1.232
298.62 K, 101.3 kPa, x1 = 0.7489 | 1.232
308.76 K, 101.3 kPa, x1 = 0.5001 | 0.9475
308.86 K, 101.3 kPa, x1 = 0.5001 | 0.948
323.15 K, 100 kPa, x2 = 0.2 | 0.8615
323.15 K, 100 kPa, x2 = 0.4 | 0.8075
323.15 K, 100 kPa, x2 = 0.6 | 0.7427
323.15 K, 100 kPa, x2 = 0.8 | 0.6736

CCCCCCCCCCO + CCO
viscosity [mPa·s], 101 kPa
Conditions | 298.15 K | 308.15 K | 318.15 K
x2 = 0.05 | 10.42 | 7.3 | 4.847
x2 = 0.1 | 9.841 | 7.003 | 4.436
x2 = 0.15 | 9.249 | 6.644 | 4.102
x2 = 0.2 | 8.648 | 6.24 | 3.83
x2 = 0.25 | 8.044 | 5.809 | 3.604
x2 = 0.3 | 7.442 | 5.364 | 3.409
x2 = 0.35 | 6.845 | 4.919 | 3.236
x2 = 0.4 | 6.259 | 4.484 | 3.073
x2 = 0.45 | 5.687 | 4.065 | 2.912
x2 = 0.5 | 5.133 | 3.671 | 2.747
x2 = 0.55 | 4.6 | 3.304 | 2.575
x2 = 0.6 | 4.09 | 2.967 | 2.391
x2 = 0.65 | 3.606 | 2.659 | 2.195
x2 = 0.7 | 3.15 | 2.378 | 1.989
x2 = 0.75 | 2.723 | 2.119 | 1.775
x2 = 0.8 | 2.326 | 1.876 | 1.558
x2 = 0.85 | 1.961 | 1.641 | 1.344
x2 = 0.9 | 1.627 | 1.402 | 1.141
x2 = 0.95 | 1.325 | 1.146 | 0.9601

Cc1ccccc1C + C1COCCO1
308.15 K, 101 kPa
Conditions | viscosity [mPa·s]
x2 = 0.1 | 0.676
x2 = 0.2 | 0.699
x2 = 0.3 | 0.723
x2 = 0.5 | 0.774
x2 = 0.6 | 0.806
x2 = 0.7 | 0.841
x2 = 0.8 | 0.879
x2 = 0.9 | 0.922

CC(C)CCC[C@@H](C)[C@H]1CC[C@H]2[C@@H]3CC=C4C[C@@H](O)CC[C@]4(C)[C@H]3CC[C@]12C + ClC(Cl)Cl
viscosity [mPa·s], 101.33 kPa
Conditions | x1 = 0.00286 | x1 = 0.0048 | x1 = 0.0081 | x1 = 0.0138 | x1 = 0.01748 | x1 = 0.0223 | x1 = 0.02849 | x1 = 0.03663
298 K | 0.557 | 0.57 | 0.594 | 0.638 | 0.667 | 0.709 | 0.766 | 0.848
303 K | 0.534 | 0.547 | 0.568 | 0.608 | 0.635 | 0.673 | 0.724 | 0.798
313 K | 0.494 | 0.504 | 0.522 | 0.555 | 0.578 | 0.609 | 0.652 | 0.712
323 K | 0.459 | 0.468 | 0.483 | 0.511 | 0.529 | 0.555 | 0.589 | 0.637

CC(C)[C@@H]1CC[C@@H](C)C[C@H]1O + CCCCCCCCO
Conditions | viscosity [mPa·s]
298.15 K, 101.33 kPa, x1 = 0.5 | 13.1

CC(C)[C@@H]1CC[C@@H](C)C[C@H]1O + CCCCCCCO
Conditions | viscosity [mPa·s]
298.15 K, 101.33 kPa, x1 = 0.5 | 27.53

CCC#N + CCCCOC(C)=O
303.15 K, 101.33 kPa
Conditions | viscosity [mPa·s]
x1 = 0.11 | 0.6161
x1 = 0.2014 | 0.5958
x1 = 0.2942 | 0.5799
x1 = 0.4034 | 0.5557
x1 = 0.5034 | 0.5332
x1 = 0.594 | 0.5076
x1 = 0.7008 | 0.4785
x1 = 0.798 | 0.4496
x1 = 0.8966 | 0.419
